Common to all, as to test: growth of human tumour cells (NCI), 48 h
Test [1] has as its system A549 NSCLC.
For test [2], the system named is EKVX NSCLC.
For test [3], the system named is HCC-2998 colon.
The test system of test [4] is HCT-116 colon.
Test [5] concerns HL-60(TB) leukemia.
The subject of test [6] is MOLT-4 leukemia.
The subject of test [7] is NCI-H226 lung.
Test [8] deals with SR leukemia.
Test [9] has as its system UO-31 renal.
The test system of test [10] is A498 renal.

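48-hour exposure; five concentrations; linearly interpolated endpoints. Abbreviation: GI50, concentration required for 50% inhibition of growth. At the TGI there is no net growth.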

Consider `O=C1NC(S(=O)(=O)O)=NNC12c1ccccc1-c1ccccc12`, for which the TGI in test [1], in test [2], in test [3], in [4], in [5] and in test [6] was above 10 µM each time. Also, the TGI in test [7], in [8] and in test [9] was above 10 µM in each case.
Turning to `O=C(Nc1cccnc1)c1ccc2ccc3ccc(C(=O)Nc4cccnc4)nc3c2n1`, the GI50 in test [10] was 0.214 µM; in test [1], 0.135 µM; in [2], 0.294 µM; in test [3], 64.8 nM; in test [5], 0.132 µM; in test [6] it was 0.419 µM. Besides, the figures for the GI50 in test [7], in test [8] and in test [9] were 0.128 µM, 0.155 µM and above 100 µM, respectively. For the same molecule, the TGI in test [10] was 0.553 µM; in [1], above 100 µM; in test [2], above 100 µM; in [3] it was above 100 µM; in test [5] it was above 100 µM; in test [6] it was above 100 µM. Besides, the TGI in [7], in test [8] and in test [9] was above 100 µM in each case.
Turning to `CC(O[Si](c1ccccc1)(c1ccccc1)C(C)(C)C)[C@H](NC(=O)OC(C)(C)C)C(=O)O` (stereo not given in full), the TGI in test [10] is above 100 µM; in test [1], above 100 µM; in test [2] it was above 100 µM; in [3] it was above 100 µM; in test [4], above 100 µM; in [5], 59.8 µM. In addition, the TGI in [6] was 46.1 µM; in test [8], 90.2 µM; in test [9], above 100 µM.
As to `CCCN1C(=O)/C(=C/c2ccc(O)cc2)SC1=Nc1ccc(OC)cc1`, the GI50 was 9.61 µM in test [10]; 12.5 µM in test [1]; 12.3 µM in [2]; 14.2 µM in test [4]; 17.1 µM in test [5]; 10.7 µM in test [6]. Also, the figures for the GI50 in test [7], in test [8] and in test [9] were 32 µM, 10.4 µM and 25.7 µM, respectively. Besides, the TGI is 22.7 µM in [10]; 26.1 µM in [1]; 27.9 µM in [2]; 29.3 µM in [4]; 50.2 µM in test [5]; above 100 µM in test [6]. Besides, the TGI is 95.5 µM in [7], above 100 µM in test [8] and above 100 µM in test [9].
On to `CC[C@@H](C)Nc1cc(C(=O)NC2CC3CCC(C2)N3c2ccc(C(=O)C3CC3)cn2)c(C)cc1C(N)=O` (stereo not given in full), for which the GI50 in test [10] was 0.103 µM; in test [1], 0.0343 µM; in [3] it was 39.5 nM; in test [4], 0.03 µM; in [5], 0.0329 µM; in test [6], 0.0374 µM. Moreover, the GI50 in test [7] was 0.0568 µM; in test [8], 0.0189 µM; in [9] it was 0.0479 µM. Moreover, the TGI is above 100 µM in [10]; above 100 µM in test [1]; 13.5 µM in test [3]; above 100 µM in test [4]; 88.9 µM in [5]; 31 µM in test [6]. The TGI in test [7] is 51.1 µM; in test [8], above 47.6 µM; in test [9] it was above 100 µM.
In the case of `C=C1C(=O)OC2C1C(OC(=O)/C(C)=C\C)CC1(CO1)C1C(O)C=C(C)C21O` (stereo not given), the TGI in test [10] is 17.7 µM; in test [1] it was 40.6 µM; in [2], 26.5 µM; in test [3] it was 15.1 µM; in test [4], 3.29 µM; in test [5] it was above 100 µM. Also, the TGI in test [6] was determined as 11.8 µM; in [8], 24.2 µM; in test [9], 22.2 µM.
Consider `N#Cc1c(N)nc(N2CCSCC2)c(C#N)c1-c1ccc(O)cc1`, for which the GI50 in [10] was 13.4 µM; in test [1] it was 30.7 µM; in test [2], 27.5 µM; in test [3], 17200 nM; in [5], 17 µM; in test [6], 11.6 µM. The GI50 is 21.9 µM in test [7], 11.2 µM in [8] and 23.2 µM in test [9]. The TGI in [10] is 29.8 µM; in test [1] it was above 100 µM; in [2], above 100 µM; in [3], 36.6 µM; in [5] it was 53.1 µM; in test [6], 34.5 µM. For the same molecule, the values for the TGI in test [7], in test [8] and in test [9] were 58.5 µM, 38.1 µM and above 100 µM, respectively.
Take `O=C(O)CC1CC=C[C@H]2c3cc4c(cc3C(=O)NC12)OCO4` (stereo not given in full): the TGI in [1], in test [2], in test [3], in test [4], in test [5] and in test [6] was above 75 µM in each case. Besides, the TGI in test [7], in [8] and in test [9] was above 75 µM in each case.
Consider `CC1=C2[C@H](c3ccccc3)C3C=CC2(c2ccccc23)N(C(=O)C(c2ccccc2)c2ccccc2)C1=O` (stereo not given in full), for which the TGI in test [10], in [1], in [2], in [3], in test [4] and in test [5] was above 100 µM in each case. In addition, the TGI in test [6], in test [8] and in test [9] was above 100 µM throughout.
For `CCCCCCCCCOC(=S)NCCCCC`, the TGI is 59 µM in [10]; 81.7 µM in test [1]; 86.8 µM in [2]; above 100 µM in test [3]; 44.8 µM in [4]; 39.5 µM in test [5]. Also, the TGI in [6] worked out at 42.6 µM; in test [8], 50.6 µM; in test [9], 51.1 µM.
Turning to `CCCCCCCCCCCCCC(=O)OCC1OC(n2cc(F)c(=O)[nH]c2=O)C(N)C(OC(=O)CCCCCCCCCCCCC)C1O` (stereo not given), the TGI in test [10], in [1], in [2], in test [3], in test [4] and in test [5] was above 100 µM in each case. In addition, the TGI in [6], in test [8] and in test [9] was above 100 µM throughout.
